{"source": "patent US11117860B2", "about": "“Phenyl urea derivatives as n-formyl peptide receptor modulators” (Allergan, Inc., priority 2016, dated 2021)", "key": {"FPR2": {"target": "T1, FPR2 (Homo sapiens, UniProt P25090)", "T1 construct": "expressed in transfected cells", "T1 sequence (P25090 1-351)": "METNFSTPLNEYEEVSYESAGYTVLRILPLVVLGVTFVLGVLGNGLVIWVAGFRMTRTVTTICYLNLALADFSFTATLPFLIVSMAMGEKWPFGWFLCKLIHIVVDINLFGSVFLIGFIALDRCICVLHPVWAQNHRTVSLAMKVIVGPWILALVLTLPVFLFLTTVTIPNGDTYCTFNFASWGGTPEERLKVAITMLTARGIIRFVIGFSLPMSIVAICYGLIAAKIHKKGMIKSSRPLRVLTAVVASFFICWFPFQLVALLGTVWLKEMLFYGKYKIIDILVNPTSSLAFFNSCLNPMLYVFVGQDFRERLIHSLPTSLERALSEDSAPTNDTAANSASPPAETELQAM", "assay": "compound-induced calcium activity on FLIPR Tetra, CHO-Gα16 cells stably expressing FPR2", "type": "cell-based", "design": "FPR2 Ga16-CHO (% eff): unit not given here", "conditions": "for FPR2 Ga16-CHO (% eff): efficacy value in parentheses; for pEC50: tested at 0.61 to 10,000 nM, read-out: FPR2 Ga16-CHO EC50", "protocol": "(§1) CHO-Gα16 cells stably expressing FPR1 or FPR2 were cultured in (Ham's F12 nutrient media, 10% fetal bovine serum, 1% PSA (penicillin, streptomycin, amphotericin B antiobiotic/antimycotic), 400 μg/ml geneticin and 50 μg/ml hygromycin). In general, the day before the experiment, 18,000 cells/well were plated in a 384-well clear bottom poly-D-lysine coated plate. The following day the screening compound-induced calcium activity was assayed on the FLIPR^Tetra. The drug plates were prepared in 384-well microplates using the EP3 and the MultiPROBE robotic liquid handling systems. Compounds were tested at concentrations ranging from 0.61 to 10,000 nM. Results are expressed as EC50 (nM) and efficacy values."}, "FPR1": {"target": "T2, FPR1 (Homo sapiens, UniProt P21462)", "T2 construct": "expressed in transfected cells", "T2 sequence (P21462 1-350)": "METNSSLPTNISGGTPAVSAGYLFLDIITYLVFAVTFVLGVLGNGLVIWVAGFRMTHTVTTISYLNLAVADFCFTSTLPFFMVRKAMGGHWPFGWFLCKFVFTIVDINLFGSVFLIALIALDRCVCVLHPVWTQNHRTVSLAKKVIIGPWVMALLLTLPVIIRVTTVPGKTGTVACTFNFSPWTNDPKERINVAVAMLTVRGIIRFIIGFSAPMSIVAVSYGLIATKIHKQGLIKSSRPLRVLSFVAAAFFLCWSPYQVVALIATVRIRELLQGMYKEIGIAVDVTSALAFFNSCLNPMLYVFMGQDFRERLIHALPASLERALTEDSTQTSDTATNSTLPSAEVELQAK", "assay": "compound-induced calcium activity on FLIPR Tetra, CHO-Gα16 cells stably expressing FPR1", "type": "cell-based", "conditions": "for pEC50 / FPR1 Ga16-CHO (% eff): CHO-Gα16 cells stably expressing FPR1, calcium activity; for pEC50: tested at 0.61 to 10,000 nM, read-out: FPR1 Ga16-CHO EC50; for FPR1 Ga16-CHO (% eff): efficacy value in parentheses; for Ratio FPR2:FPR1 (EC50): ratio of EC50 for agonizing FPR2 to EC50 for agonizing FPR1 (selectivity for FPR1)", "protocol": "as §1"}}, "note": "pEC50: −log10 of the molar value.", "data": [{"compound": "CC(C)CC(C(=O)O)C(C)NC(=O)Nc1ccc(Br)cc1", "note": "(single isomer, unassigned) [Compound 105, 2-(1-(3-(4-bromophenyl)ureido)ethyl)-4-methylpentanoic acid]", "values": [{"measurement": "FPR2 Ga16-CHO (% eff)", "setting": "FPR2", "value": 0.56}, {"measurement": "pEC50", "setting": "FPR2", "value": 5.49}, {"measurement": "pEC50", "setting": "FPR1", "value": 7.89}, {"measurement": "FPR1 Ga16-CHO (% eff)", "setting": "FPR1", "value": 103, "unit": "%"}, {"measurement": "Ratio FPR2:FPR1 (EC50)", "setting": "FPR1", "value": 249}]}, {"compound": "CC(C)CC(C(=O)O)C(C)NC(=O)Nc1ccc(Br)cc1", "note": "(single isomer, unassigned) [Compound 103, 2-(1-(3-(4-bromophenyl)ureido)ethyl)-4-methylpentanoic acid]", "values": [{"measurement": "pEC50", "setting": "FPR2", "value": 7.39}, {"measurement": "pEC50", "setting": "FPR1", "value": 9.28}]}, {"compound": "CC(C)CC(C(=O)OC(C)(C)C)C(C)NC(=O)Nc1ccc(Br)cc1", "note": "(single isomer, unassigned) [Compound 100, tert-butyl 2-(1-(3-(4-bromophenyl)ureido)ethyl)-4-methylpentanoate]", "values": [{"measurement": "FPR2 Ga16-CHO (% eff)", "setting": "FPR2", "value": 0.75}, {"measurement": "pEC50", "setting": "FPR2", "value": 5.42}, {"measurement": "pEC50", "setting": "FPR1", "value": 5.85}, {"measurement": "FPR1 Ga16-CHO (% eff)", "setting": "FPR1", "value": 80, "unit": "%"}, {"measurement": "Ratio FPR2:FPR1 (EC50)", "setting": "FPR1", "value": 2.6}]}, {"compound": "CC(C)CC(C(=O)O)C(C)NC(=O)Nc1ccc(Br)cc1", "note": "(single isomer, unassigned) [Compound 107, 2-(1-(3-(4-bromophenyl)ureido)ethyl)-4-methylpentanoic acid]", "values": [{"measurement": "FPR2 Ga16-CHO (% eff)", "setting": "FPR2", "value": 0.96}, {"measurement": "pEC50", "setting": "FPR2", "value": 7.60}, {"measurement": "pEC50", "setting": "FPR1", "value": 8.77}, {"measurement": "FPR1 Ga16-CHO (% eff)", "setting": "FPR1", "value": 93, "unit": "%"}, {"measurement": "Ratio FPR2:FPR1 (EC50)", "setting": "FPR1", "value": 15}]}, {"compound": "CC(C)CC(C(=O)O)C(C)NC(=O)Nc1ccc(Br)cc1", "note": "(racemic) [Compound 103, 2-(1-(3-(4-bromophenyl)ureido)ethyl)-4-methylpentanoic acid]", "values": [{"measurement": "FPR2 Ga16-CHO (% eff)", "setting": "FPR2", "value": 1.04}, {"measurement": "FPR1 Ga16-CHO (% eff)", "setting": "FPR1", "value": 97, "unit": "%"}, {"measurement": "Ratio FPR2:FPR1 (EC50)", "setting": "FPR1", "value": 79}]}, {"compound": "CC(C)CC(C(=O)O)C(C)NC(=O)Nc1ccc(Br)cc1", "note": "(single isomer, unassigned) [Compound 106, 2-(1-(3-(4-bromophenyl)ureido)ethyl)-4-methylpentanoic acid]", "values": [{"measurement": "FPR2 Ga16-CHO (% eff)", "setting": "FPR2", "value": 0.75}, {"measurement": "pEC50", "setting": "FPR2", "value": 5.00}, {"measurement": "pEC50", "setting": "FPR1", "value": 7.01}, {"measurement": "FPR1 Ga16-CHO (% eff)", "setting": "FPR1", "value": 91, "unit": "%"}, {"measurement": "Ratio FPR2:FPR1 (EC50)", "setting": "FPR1", "value": 101}]}, {"compound": "CC(C)CC(C(=O)O)C(C)NC(=O)Nc1ccc(Br)cc1", "note": "(single isomer, unassigned) [Compound 104, 2-(1-(3-(4-bromophenyl)ureido)ethyl)-4-methylpentanoic acid]", "values": [{"measurement": "FPR2 Ga16-CHO (% eff)", "setting": "FPR2", "value": 0.89}, {"measurement": "pEC50", "setting": "FPR2", "value": 6.07}, {"measurement": "pEC50", "setting": "FPR1", "value": 7.29}, {"measurement": "FPR1 Ga16-CHO (% eff)", "setting": "FPR1", "value": 94, "unit": "%"}, {"measurement": "Ratio FPR2:FPR1 (EC50)", "setting": "FPR1", "value": 17}]}, {"compound": "CC(C)CC(C(=O)OC(C)(C)C)C(C)NC(=O)Nc1ccc(Br)cc1", "note": "(single isomer, unassigned) [Compound 101, tert-butyl 2-(1-(3-(4-bromophenyl)ureido)ethyl)-4-methylpentanoate]", "values": [{"measurement": "FPR2 Ga16-CHO (% eff)", "setting": "FPR2", "value": 0.73}, {"measurement": "pEC50", "setting": "FPR2", "value": "≤ 5.00"}, {"measurement": "pEC50", "setting": "FPR1", "value": "≤ 5.00"}, {"measurement": "FPR1 Ga16-CHO (% eff)", "setting": "FPR1", "value": 66, "unit": "%"}, {"measurement": "Ratio FPR2:FPR1 (EC50)", "setting": "FPR1", "value": 1}]}, {"compound": "CC(C)CC(C(=O)O)C(C)NC(=O)Nc1ccc(Br)cc1", "note": "(racemic) [Compound 102, 2-(1-(3-(4-bromophenyl)ureido)ethyl)-4-methylpentanoic acid]", "values": [{"measurement": "FPR2 Ga16-CHO (% eff)", "setting": "FPR2", "value": 0.63}, {"measurement": "FPR1 Ga16-CHO (% eff)", "setting": "FPR1", "value": 92, "unit": "%"}, {"measurement": "Ratio FPR2:FPR1 (EC50)", "setting": "FPR1", "value": 22}]}, {"compound": "CC(C)CC(C(=O)O)C(C)NC(=O)Nc1ccc(Br)cc1", "note": "(single isomer, unassigned) [Compound 102, 2-(1-(3-(4-bromophenyl)ureido)ethyl)-4-methylpentanoic acid]", "values": [{"measurement": "pEC50", "setting": "FPR2", "value": 5.98}, {"measurement": "pEC50", "setting": "FPR1", "value": 7.32}]}]}
